Where two headings read alike, the source gives them in different places.
Key:
[1] = test system: LTB4 production in mouse blood (LTA4 hydrolase); assay: Ex vivo LTB4 production by calcium ionophore stimulated mouse blood after oral dosing; type: in vivo
Experimental: Ex Vivo LTB4 and Thromboxane Production by Calcium Ionophore Stimulated Mouse Blood for LTA4 Hydrolase Inhibitor Activity
Leukotriene A4 hydrolase inhibitor compounds of the present invention were diluted to a predetermined concentration in phosphate buffered saline containing 2% DMSO and 1% Tween 80. The compounds were administered by oral gavage to adult male outbred mice weighing approximately 20-30 gm at a dose of 10 mg/kg body weight. (Compounds given at a dose of 50 mg/kg body weight are designtated in following Table by the symbol, *.) Sixty (60) minutes after administration of an LTA4 inhibitor compound of the invention, blood was collected (into heparin-containing tubes) from the retroorbital sinus. […] The mixture was incubated for 10 minutes at 37° C. in a humidified incubator. The reaction was terminated by centrifugation (833 g, 10 minutes at 4° C.). Supernatants were analyzed for LTB4 and thromboxane by commercially available enzyme-linked immunoassays (Caymen Chemical Co., Ann Arbor, Mich.] in accordance with the manufacturer's instructions. The percent inhibition was determined by comparison to animals treated identically except that the solution admininstered by oral gavage was devoid of inhibitor compound.

[2] = molecular target: T1, recombinant human LTA4 hydrolase (rhLTA4H) (Homo sapiens, UniProt P09960); assay: Recombinant human LTA4 hydrolase assay for LTA4 hydrolase inhibitor activity; conditions: Recombinant Human LTA4 Hydrolase Assay IC50 LTA4H
T1 sequence (P09960 1-611): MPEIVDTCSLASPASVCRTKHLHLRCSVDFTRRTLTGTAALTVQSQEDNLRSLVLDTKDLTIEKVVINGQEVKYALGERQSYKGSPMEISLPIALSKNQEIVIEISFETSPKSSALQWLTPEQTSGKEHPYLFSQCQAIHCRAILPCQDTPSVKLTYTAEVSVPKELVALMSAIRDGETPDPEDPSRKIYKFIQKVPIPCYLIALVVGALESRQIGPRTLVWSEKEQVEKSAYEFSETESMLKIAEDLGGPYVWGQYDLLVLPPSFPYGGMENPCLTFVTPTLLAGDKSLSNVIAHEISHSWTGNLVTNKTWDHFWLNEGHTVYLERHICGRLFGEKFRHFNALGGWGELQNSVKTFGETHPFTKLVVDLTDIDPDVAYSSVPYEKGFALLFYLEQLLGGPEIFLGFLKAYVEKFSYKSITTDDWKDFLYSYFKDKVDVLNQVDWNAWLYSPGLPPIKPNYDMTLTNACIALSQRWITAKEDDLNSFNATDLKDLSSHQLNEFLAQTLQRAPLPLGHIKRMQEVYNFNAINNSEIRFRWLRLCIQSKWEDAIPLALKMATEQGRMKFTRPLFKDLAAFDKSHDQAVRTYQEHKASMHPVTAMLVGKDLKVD
Experimental: One or more predetermined amounts of a compound of the invention were incubated in assay buffer (0.1 M potassium phosphate, 5 mg/ml fatty acid free BSA, 10% DMSO, pH 7.4) for 10 minutes at room temperature with 250 ng of recombinant hLTA4H to allow binding, if any, between the enzyme and inhibitor. The stock enzyme solution was 1 mg/ml LTA4 hydrolase, 50 mM Tris, pH 8.0, 150 mM NaCl, 2.5 mM beta-mercaptoethanol, 50% glycerol. […] Each reaction was carried out at room temperature for 10 minutes. The reaction was stopped by diluting 25 μl of the reaction mixture with 500 μl of the assay buffer without DMSO. LTB4 was quantified in the diluted sample by a commercially available enzyme-linked immunoassay [Caymen Chemical Co., Ann Arbor, Mich.] using the method recommended in the manufacturer's instructions and compared to the amount of LTB4 produced in a negative control (i.e., essentially identical conditions except without addition of an inhibitor compound). The IC50 was routinely calculated from the data produced.

[3] = mouse, oral gavage, 1 hour after administration of 10 mg/kg; read-out: Murine Ex Vivo LTB4 Inhibition % I LTB4
[4] = Mus musculus, po, 1 h, read-out: Murine Ex Vivo LTB4 Inhibition % I LTB4
[5] = mouse, oral gavage, 1 hour after administration of 50 mg/kg (*); read-out: Murine Ex Vivo LTB4 Inhibition % I LTB4
[6] = Mus musculus, po, 1 h; read-out: Murine Ex Vivo LTB4 Inhibition % I LTB4

| Structure (SMILES) | IC50 ([2]; recombinant hLTA4H) | inhibition in vivo at 10 mg/kg [1, 3] | also measured |
| --- | --- | --- | --- |
| c1ccc(Cc2ccc(OCCCn3cnc4ccncc43)cc2)cc1 [356 A] | 350 nM | 14% |  |
| c1ccc(Cc2ccc(OCCCn3cnc4cnccc43)cc2)cc1 [356 B] | 170 nM | 33% |  |
| c1ccc(Cc2ccc(OCCCn3ccc4ncnc-4c3)cc2)cc1 [356 C] | 100 nM | 48% |  |
| c1ccc(Cc2ccc(OCCn3cnc4ncncc43)cc2)cc1 [357 A] |  |  | inhibition in vivo at 10 mg/kg [1, 4]: 57%; IC50 [2]: 47 nM |
| Fc1ccc(Oc2ccc(OCCN3CCCC3)cc2)cc1 [Example 48, 1-[2-[4-(4-fluorophenoxy)phenoxy]ethyl]pyrrolidine] | 150 nM |  | inhibition in vivo at 10 mg/kg [1, 4]: 13% |
| c1ccc2ncc(Cc3ccc(OCCN4CCCC4)cc3)cc2c1 [Example 132] | 84 nM | 83% |  |
| c1csc(Cc2ccc(OCCN3CCCC3)cc2)c1 [Example 133] | 10 nM | 49% |  |
| Oc1ccc(Cc2ccc(OCCN3CCCC3)cc2)cc1 [Example 137] | 30 nM | 38% |  |
| c1ccc(Cc2ccc(OCCN3CCCC3)cc2)nc1 [Example 138] | 420 nM | 21% |  |
| Fc1ccc(Cc2ccc(OCCN3CCCC3)cc2)cc1 [Example 139] | 110 nM | 9% |  |
| Fc1cccc(Cc2ccc(OCCN3CCCC3)cc2)c1 [Example 142] | 37 nM | 32% |  |
| NC(=O)C1CCN(CCOc2ccc(Cc3ccccc3)cn2)CC1 [Example 147] | 1060 nM | 94% |  |
| Clc1ccccc1COc1ccc(OCCN2CCCC2)cc1 [Example 208] | 4000 nM | 13% |  |
| FC(F)(F)c1cccc(COc2ccc(OCCN3CCCC3)cc2)c1 [Example 209] | 3000 nM | 0% |  |
| Fc1cccc(COc2ccc(OCCN3CCCC3)cc2)c1 [Example 211] | 120 nM |  | inhibition in vivo at 50 mg/kg [1, 5]: 47% |
| c1csc(COc2ccc(OCCN3CCCC3)cc2)c1 [Example 215] | 85 nM |  | inhibition in vivo at 50 mg/kg [1, 5]: 33% |
| NC(=O)C1CCN(CCOc2ccc(Cc3cccs3)cc2)CC1 [Example 229] | 240 nM | 70% |  |

| Structure (SMILES) | IC50 ([2]; recombinant hLTA4H) | inhibition in vivo at 10 mg/kg [1, 3] | also measured |
| --- | --- | --- | --- |
| NC(=O)C1CCN(CCOc2ccc(Cc3ccsc3)cc2)CC1 [Example 230] | 390 nM | 53% |  |
| NC(=O)C1CCN(CCOc2ccc(Cc3cccc(F)c3)cc2)CC1 [Example 233] | 370 nM | 98% |  |
| c1ccc(Cc2ccc(OCCNC3CCCCC3)cc2)cc1 [Example 240] | 1070 nM | 33% |  |
| c1ccc(Cc2ccc(OCCNC3CCCC3)cc2)cc1 [Example 241] | 600 nM | 33% |  |
| OC1CCN(CCOc2ccc(Cc3ccccc3)cc2)CC1 [Example 247] | 100 nM | 70% |  |
| O=C(NC1CCN(CCOc2ccc(Cc3ccccc3)cc2)CC1)c1cc2ccccc2o1 [Example 248] | 200 nM | 56% |  |
| NC(=O)C1CCN(CCOc2ccc(Oc3ccccc3)cc2)CC1 [Example 252] | 160 nM | 94% |  |
| NC(=O)C1CCCN(CCOc2ccc(Oc3ccccc3)cc2)C1 (stereo not drawn) [Example 253] | 910 nM | 73% |  |
| CCOC(=O)C1CCN(CCOc2ccc(Oc3ccccc3)cc2)CC1 [Example 254] | 6000 nM | 87% |  |
| O=C(OCc1ccccc1)C1CCCN1CCCOc1ccc(Cc2ccccc2)cc1 (stereo not drawn) [Example 258] | 1250 nM |  | inhibition in vivo at 50 mg/kg [1, 5]: 81% |
| c1ccc(Cc2ccc(OCCCN3CCCC3)cc2)cc1 [Example 259] | 100 nM |  | inhibition in vivo at 50 mg/kg [1, 5]: 35% |
| NC(=O)C1CCN(CC2CCc3cc(Cc4ccccc4)ccc3O2)CC1 (stereo not drawn) [Example 293] | 480 nM | 93% |  |
| COC(=O)CCN(C)CCCOc1ccc(Cc2ccsc2)cc1 [Example 330] | 900 nM |  | inhibition in vivo at 10 mg/kg [1, 4]: 95% |
| [O-][n+]1ccc2c(c1)ncn2CCOc1ccc(Cc2ccccc2)cc1 [Example 365] |  |  | inhibition in vivo at 10 mg/kg [1, 4]: 72%; IC50 [2]: 82 nM |
| CCOC(=O)C1CCN(CCOc2ccc(Cc3ccccc3)s2)CC1 [Example 370] | 59000 nM |  | inhibition in vivo at 10 mg/kg [1, 6]: 96% |
| COC(=O)CCN(C)CCCOc1ccc(Cc2ccccc2)s1 [Example 375] | 900 nM |  | inhibition in vivo at 10 mg/kg [1, 6]: 67% |

The next lines start with results.

| IC50 ([2]; recombinant hLTA4H) | Structure (SMILES) | inhibition in vivo at 10 mg/kg [1, 3] | also measured |
| --- | --- | --- | --- |
| 220 nM | COC(=O)C1CN(CCCOc2ccc(Cc3ccccc3)cc2)CCC1=O (stereo not drawn) [Example 262] | 52% |  |
| 4500 nM | CC(C)(C)OC(=O)C1CCN(CCCOc2ccc(Cc3ccccc3)cc2)CC1 [Example 263] | 60% |  |
| 6500 nM | O=C(CCNCCOc1ccc(Cc2ccccc2)cc1)OCc1ccccc1 [Example 266] | 29% |  |
| 170 nM | COC(=O)CCNCCCOc1ccc(Cc2ccccc2)cc1 [Example 267] |  | inhibition in vivo at 50 mg/kg [1, 5]: 100% |
| 2770 nM | CCOC(=O)C1CCCN(CCCOc2ccc(Cc3ccccc3)cc2)C1 (stereo not drawn) [Example 269] | 50% |  |
| 610 nM | O=C(CCNCCCCOc1ccc(Cc2ccccc2)cc1)OCc1ccccc1 [Example 273] | 100% |  |
| 11 nM | c1ccc(Cc2ccc3c(c2)CC(CN2CCCC2)O3)cc1 (stereo not drawn) [Example 280] | 33% |  |
| 3700 nM | CCOC(=O)C1CCN(CC2Cc3cc(Cc4ccccc4)ccc3O2)CC1 (stereo not drawn) [Example 282] | 57% |  |
| 700 nM | NC(=O)C1CCN(CC2Cc3cc(Cc4ccccc4)cnc3O2)CC1 (stereo not drawn) [Example 288] | 0% |  |
| 450 nM | NC(=O)C1CCN(CC2Cc3cc(Oc4ccccc4)ccc3O2)CC1 (stereo not drawn) [Example 290] | 94% |  |
| 8000 nM | CCOC(=O)C1CCN(CC2Cc3cc(Oc4ccccc4)ccc3O2)CC1 (stereo not drawn) [Example 291] | 67% |  |
| 110 nM | CC(=O)N1CCN(CC2Cc3cc(Cc4ccccc4)ccc3O2)CC1 (stereo not drawn) [Example 294] | 57% |  |
| 440 nM | CNC(=O)C1CCN(CC2Cc3cc(Cc4ccccc4)ccc3O2)CC1 (stereo not drawn) [Example 295] | 80% |  |
| 710 nM | CNC(=O)C1CCN(CC2Cc3cc(Oc4ccccc4)ccc3O2)CC1 (stereo not drawn) [Example 296] | 72% |  |
| 4500 nM | CCOC(=O)CC1CCN(CCOc2ccc(Cc3ccccc3)cc2)CC1 [Example 301] | 81% |  |
| 10 nM | COC(=O)C1(O)CCN(CCOc2ccc(Cc3ccccc3)cc2)CC1 [Example 305] | 42% |  |
| 2500 nM | CCOC(=O)C1CCN(CCOc2ccc(Cc3cccc(F)c3)cc2)CC1 [Example 309] | 96% |  |
| 930 nM | CCOC(=O)C1CCN(CCOc2ccc(Cc3cccs3)cc2)CC1 [Example 310] | 96% |  |
| 163 nM | CC(=O)N[C@H]1C[C@@H](C)N(CCOc2ccc(Cc3ccccc3)cc2)[C@@H](C)C1 [Example 315] | 53% |  |
| 50 nM | C[C@@H]1C[C@H](C(N)=O)C[C@H](C)N1CCOc1ccc(Cc2ccccc2)cc1 [Example 316] | 85% |  |
| 360 nM | NC(=O)N1CCN(CC2Cc3cc(Cc4ccccc4)ccc3O2)CC1 (stereo not drawn) [Example 337] | 82% |  |
| 2000 nM | c1ccc(Cc2ccc(OCCn3cnc4ccccc43)cc2)cc1 [Example 339] | 47% |  |
| 17 nM | [O-][n+]1cccc2c1ncn2CCOc1ccc(Cc2ccccc2)cc1 [Example 363] | 62% |  |
| 42000 nM | NC(=O)C1CCN(CCOc2ccc(Cc3ccccc3)s2)CC1 [Example 369] | 100% |  |

From patent US6506876B1, “LTA4 hydrolase inhibitor pharmaceutical compositions and methods of use” (G.D. Searle & Co., priority 1994, dated 2003)
